Ends that are not written are not given here.
Columns and labels:
[1] = tested on: antibodies in sera from HCV-seropositive donors; experiment: ELISA with HCV antibody-positive sera (biotinylated peptides on streptavidin- or avidin-coated plates, unbiotinylated peptides coated directly); format: binding, human; conditions: for PEPTIDE ELISA (O.D.): Table 12, biotinylated 20-mers
Summary of the method: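 Read-out is OD at 450 nm after HRP goat anti-human Ig and TMB development, following 1 h at 37° C. with seropositive or negative sera diluted 1:100 (or 20-fold). Antigen was either unbiotinylated peptide adsorbed on plastic (pH 9.6 carbonate, 2–5 or 3 μg/ml) or biotinylated peptide at 1 μg/ml captured on streptavidin-coated wells, with casein blocking.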

[2] = ELISA with seronegative / negative control sera (specificity); format: binding, human
Summary of the method: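 Specificity readout is OD at 450 nm (HRP goat anti-human Ig, TMB/H2O2, sulfuric acid stop), with ≥0.250 counted positive. Seronegative donor sera (typically 1:100, 1 h, 37° C) were applied to casein-blocked wells coated with peptide directly or via streptavidin capture of biotinylated peptide.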

Sequence: PQRKTKRNTNRRPQDVKFPG
- optical density (450 nm) ([1]; Table 4C, serum 8241, 20-fold dilution): 0.545
- optical density (450 nm) ([1]; Table 4C, serum 8242, 20-fold dilution): 2.415
- optical density (450 nm) ([1]; Table 4C, serum 8243, 20-fold dilution): 2.306
- optical density (450 nm) ([1]; Table 4C, serum 8247, 20-fold dilution): 1.975
- optical density (450 nm) ([1]; Table 4C, serum 8250, 20-fold dilution): 0.357
- optical density (450 nm) ([1]; Table 4C, serum 8271, 20-fold dilution): 1.284
- optical density (450 nm) ([1]; Table 4C, serum 8273, 20-fold dilution): 2.769
- optical density (450 nm) ([1]; Table 4C, serum 8274, 20-fold dilution): 2.943
- optical density (450 nm) ([1]; Table 4C, serum 8275, 20-fold dilution): 2.030
- optical density (450 nm) ([1]; Table 4C, serum 8276, 20-fold dilution): 2.348
- optical density (450 nm) ([1]; Table 4C, serum 8277, 20-fold dilution): 2.572
- optical density (450 nm) ([1]; Table 4C, serum 8278, 20-fold dilution): 2.022
- optical density (450 nm) ([1]; Table 5, sample 8242 (positive), peptide concentration 0.01 micrograms per milliliter, listed as HCV peptide II): 1.196
- optical density (450 nm) ([1]; Table 5, sample 8242 (positive), peptide concentration 0.03 micrograms per milliliter, listed as HCV peptide II): 1.481
- optical density (450 nm) ([1]; Table 5, sample 8242 (positive), peptide concentration 0.1 micrograms per milliliter, listed as HCV peptide II): 1.399
- optical density (450 nm) ([1]; Table 5, sample 8242 (positive), peptide concentration 0.3 micrograms per milliliter, listed as HCV peptide II): 1.365
- optical density (450 nm) ([1]; Table 5, sample 8242 (positive), peptide concentration 1.0 micrograms per milliliter, listed as HCV peptide II): 1.368
- optical density (450 nm) ([1]; Table 5, sample 8242 (positive), peptide concentration 3.0 micrograms per milliliter, listed as HCV peptide II): 1.427
- optical density (450 nm) ([1]; Table 5, sample 8243 (positive), peptide concentration 0.01 micrograms per milliliter, listed as HCV peptide II): 1.088
- optical density (450 nm) ([1]; Table 5, sample 8243 (positive), peptide concentration 0.03 micrograms per milliliter, listed as HCV peptide II): 1.597
- optical density (450 nm) ([1]; Table 5, sample 8243 (positive), peptide concentration 0.1 micrograms per milliliter, listed as HCV peptide II): 1.639
- optical density (450 nm) ([1]; Table 5, sample 8243 (positive), peptide concentration 0.3 micrograms per milliliter, listed as HCV peptide II): 1.608
- optical density (450 nm) ([1]; Table 5, sample 8243 (positive), peptide concentration 1.0 micrograms per milliliter, listed as HCV peptide II): 1.652
- optical density (450 nm) ([1]; Table 5, sample 8243 (positive), peptide concentration 3.0 micrograms per milliliter, listed as HCV peptide II): 1.668
- optical density (450 nm) ([1]; Table 5, sample 8318 (positive), peptide concentration 0.01 micrograms per milliliter, listed as HCV peptide II): 2.002
- optical density (450 nm) ([1]; Table 5, sample 8318 (positive), peptide concentration 0.03 micrograms per milliliter, listed as HCV peptide II): 2.181
- optical density (450 nm) ([1]; Table 5, sample 8318 (positive), peptide concentration 0.1 micrograms per milliliter, listed as HCV peptide II): 2.001
- optical density (450 nm) ([1]; Table 5, sample 8318 (positive), peptide concentration 0.3 micrograms per milliliter, listed as HCV peptide II): 1.958
- optical density (450 nm) ([1]; Table 5, sample 8318 (positive), peptide concentration 1.0 micrograms per milliliter, listed as HCV peptide II): 1.993
- optical density (450 nm) ([1]; Table 5, sample 8318 (positive), peptide concentration 3.0 micrograms per milliliter, listed as HCV peptide II): 2.016
- optical density (450 nm) ([1]; Table 5, sample 8320 (positive), peptide concentration 0.01 micrograms per milliliter, listed as HCV peptide II): 2.519
- optical density (450 nm) ([1]; Table 5, sample 8320 (positive), peptide concentration 0.03 micrograms per milliliter, listed as HCV peptide II): 2.757
- optical density (450 nm) ([1]; Table 5, sample 8320 (positive), peptide concentration 0.1 micrograms per milliliter, listed as HCV peptide II): 2.718
- optical density (450 nm) ([1]; Table 5, sample 8320 (positive), peptide concentration 0.3 micrograms per milliliter, listed as HCV peptide II): 2.684
- optical density (450 nm) ([1]; Table 5, sample 8320 (positive), peptide concentration 1.0 micrograms per milliliter, listed as HCV peptide II): 2.684
- optical density (450 nm) ([1]; Table 5, sample 8320 (positive), peptide concentration 3.0 micrograms per milliliter, listed as HCV peptide II): 2.718
- optical density (450 nm) ([1]; Table 8, serum 8243 (HCV), Avidin): 1.430
- optical density (450 nm) ([1]; Table 8, serum 8247 (HCV), Avidin): 1.356
- optical density (450 nm) ([1]; Table 8, serum 8248 (HCV), Avidin): 2.287
- optical density (450 nm) ([1]; Table 8, serum 8269 (HCV), Avidin): 1.213
- optical density (450 nm) ([1]; Table 8, serum 8273 (HCV), Avidin): 2.017
- optical density (450 nm) ([1]; Table 8, serum 8278 (HCV), Avidin): 1.878
- optical density (450 nm) ([1]; Table 8, serum 8285 (HCV), Avidin): 1.592
- optical density (450 nm) ([1]; Table 8, serum 8290 (HCV), Avidin): 0.060
- optical density (450 nm) ([1]; Table 8, serum 8291 (HCV), Avidin): 1.539
- PEPTIDE ELISA (O.D.) ([1]; serum 0843): 2.306
- PEPTIDE ELISA (O.D.) ([1]; serum 8240): 2.441
- PEPTIDE ELISA (O.D.) ([1]; serum 8241): 0.545
- PEPTIDE ELISA (O.D.) ([1]; serum 8242): 2.415
- PEPTIDE ELISA (O.D.) ([1]; serum 8332): 1.977
- PEPTIDE ELISA (O.D.) ([1]; serum 8339): 2.030
- PEPTIDE ELISA (O.D.) ([1]; serum 8350): 1.982
- PEPTIDE ELISA (O.D.) ([1]; serum 8377): 2.181
- PEPTIDE ELISA (O.D.) ([1]; serum 8378): 2.140
- PEPTIDE ELISA (O.D.) ([1]; serum 8388): 2.463
- optical density (450 nm) ([2]; Table 4C, negative serum): 0.070
- optical density (450 nm) ([2]; Table 5, sample 1747 (negative), peptide concentration 0.01 micrograms per milliliter, listed as HCV peptide II): 0.045
- optical density (450 nm) ([2]; Table 5, sample 1747 (negative), peptide concentration 0.03 micrograms per milliliter, listed as HCV peptide II): 0.045
- optical density (450 nm) ([2]; Table 5, sample 1747 (negative), peptide concentration 0.1 micrograms per milliliter, listed as HCV peptide II): 0.045
- optical density (450 nm) ([2]; Table 5, sample 1747 (negative), peptide concentration 0.3 micrograms per milliliter, listed as HCV peptide II): 0.046
- optical density (450 nm) ([2]; Table 5, sample 1747 (negative), peptide concentration 1.0 micrograms per milliliter, listed as HCV peptide II): 0.071
- optical density (450 nm) ([2]; Table 5, sample 1747 (negative), peptide concentration 3.0 micrograms per milliliter, listed as HCV peptide II): 0.064
- optical density (450 nm) ([2]; Table 5, sample 1781 (negative), peptide concentration 0.01 micrograms per milliliter, listed as HCV peptide II): 0.053
- optical density (450 nm) ([2]; Table 5, sample 1781 (negative), peptide concentration 0.03 micrograms per milliliter, listed as HCV peptide II): 0.049
- optical density (450 nm) ([2]; Table 5, sample 1781 (negative), peptide concentration 0.1 micrograms per milliliter, listed as HCV peptide II): 0.047
- optical density (450 nm) ([2]; Table 5, sample 1781 (negative), peptide concentration 0.3 micrograms per milliliter, listed as HCV peptide II): 0.051
- optical density (450 nm) ([2]; Table 5, sample 1781 (negative), peptide concentration 1.0 micrograms per milliliter, listed as HCV peptide II): 0.055
- optical density (450 nm) ([2]; Table 5, sample 1781 (negative), peptide concentration 3.0 micrograms per milliliter, listed as HCV peptide II): 0.057
- optical density (450 nm) ([2]; Table 8, serum 1782 (blood donor), Avidin): 0.057
- optical density (450 nm) ([2]; Table 8, serum 1784 (blood donor), Avidin): 0.045
- optical density (450 nm) ([2]; Table 8, serum 1785 (blood donor), Avidin): 0.045
- optical density (450 nm) ([2]; Table 8, serum 1794 (blood donor), Avidin): 0.153

Source: US6667387B1, “HCV core peptides” (priority 1992, dated 2003)
